Laboratory results from patent US9957271B2, “Substituted bicyclic aza-heterocycles and analogues as sirtuin modulators” (GlaxoSmithKline, LLC, priority 2012, dated 2018).

Tests used:
SIRT1 [1] = molecular target: T1, SIRT1 (Homo sapiens, UniProt Q96EB6); assay: TAMRA based mass spectrometry assay of SIRT1 activity; format: biochemical; conditions: TAMRA peptide substrate; for TAMRA EC1.5 (μM): concentration of test compound giving 150% activation of SIRT1; for Emax: percent maximum fold activation of SIRT1, read-out: TAMRA % Fold Act
T1 sequence (Q96EB6 1-747): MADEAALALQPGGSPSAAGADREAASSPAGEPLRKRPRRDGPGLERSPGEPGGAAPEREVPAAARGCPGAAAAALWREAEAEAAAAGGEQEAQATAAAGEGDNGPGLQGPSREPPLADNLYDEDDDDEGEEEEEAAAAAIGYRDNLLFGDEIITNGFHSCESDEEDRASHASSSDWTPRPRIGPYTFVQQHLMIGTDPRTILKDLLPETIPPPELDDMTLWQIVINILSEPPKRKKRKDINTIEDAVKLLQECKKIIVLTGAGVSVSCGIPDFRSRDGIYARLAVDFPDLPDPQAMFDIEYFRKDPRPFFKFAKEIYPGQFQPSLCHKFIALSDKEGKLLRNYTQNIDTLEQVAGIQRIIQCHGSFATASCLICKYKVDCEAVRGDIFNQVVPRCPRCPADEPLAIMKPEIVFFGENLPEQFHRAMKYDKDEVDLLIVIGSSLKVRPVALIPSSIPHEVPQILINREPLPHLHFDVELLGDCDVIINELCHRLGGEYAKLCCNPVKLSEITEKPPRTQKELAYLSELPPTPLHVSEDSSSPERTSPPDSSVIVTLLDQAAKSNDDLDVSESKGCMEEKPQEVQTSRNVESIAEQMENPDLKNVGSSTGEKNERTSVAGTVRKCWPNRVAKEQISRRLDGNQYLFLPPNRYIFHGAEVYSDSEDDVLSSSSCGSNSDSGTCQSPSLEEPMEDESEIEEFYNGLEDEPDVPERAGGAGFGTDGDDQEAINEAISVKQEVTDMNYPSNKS
Outline: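 Recombinant N-terminal His-tagged human SIRT1 (10 nM, E. coli) incubated 25 min at 25 °C with 0.5 μM 5TMR-labelled p53-derived acetyl-peptide and 120 μM βNAD+ in Tris-acetate pH 8 buffer with DTT and 0.05% BSA, compound at varying concentrations. Stopped with formic acid; deacetylated peptide or OAADPR measured by mass spectrometry relative to DMSO controls.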

SIRT1 [2] = molecular target: T1, SIRT1; assay: Trp mass spectrometry assay of SIRT1 activity; format: biochemical; conditions: Trp peptide substrate; for Trp EC1.5 (μM): concentration of test compound giving 150% activation of SIRT1; for Emax: percent maximum fold activation of SIRT1, read-out: Trp % Fold Act
Outline: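 His-tagged SIRT1 expressed in E. coli BL21(DE3), 10 nM, incubated 25 min at 25° C. with 0.5 μM Ac-RHKK(Ac)W-NH2 peptide and 120 μM βNAD+ in 50 mM HEPES pH 7.5, […], 1 mM DTT, 0.05% BSA; formic acid stop. OAADPR or deacetylated peptide measured by mass spectrometry; EC1.5 and percent maximum activation versus DMSO control.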

Row | TAMRA EC1.5 (μM) (SIRT1 [1]) | Emax (SIRT1 [1]) | Trp EC1.5 (μM) (SIRT1 [2]) | Emax (SIRT1 [2]) | SMILES
1 | B (EC1.5 1-25 μM) | < 350% | A (EC1.5<1 μM) | ≥ 350% | O=C(Nc1cccnc1)c1cnc2ccc(-c3cccc(C(F)(F)F)c3)nn12 [Compound 2]
2 | A (EC1.5<1 μM) | ≥ 350% | B (EC1.5 1-25 μM) | < 350% | O=C(Nc1cccc(CN2CCOCC2)n1)c1cnc2ccc(-c3cccc(C(F)(F)F)c3)nn12 [Compound 5]
3 | B (EC1.5 1-25 μM) | < 350% | B (EC1.5 1-25 μM) | < 350% | O=C(Nc1ccccn1)c1cnc2ccc(-c3cccc(OC(F)(F)F)c3)nn12 [Compound 8]
4 | C (EC1.5>25 μM) | < 350% | A (EC1.5<1 μM) | ≥ 350% | CS(=O)(=O)c1cccc(-c2ccc3ncc(C(=O)Nc4nccs4)n3n2)c1 [Compound 11]
5 | A (EC1.5<1 μM) | ≥ 350% | B (EC1.5 1-25 μM) | ≥ 350% | O=C(Nc1ccccn1)c1cnc2ccc(-c3ccccc3OC(F)(F)F)nn12 [Compound 14]
6 | B (EC1.5 1-25 μM) | < 350% | B (EC1.5 1-25 μM) | < 350% | Cc1cnc(NC(=O)c2cnc3ccc(-c4cccc(C(F)(F)F)c4)nn23)s1 [Compound 17]
7 | A (EC1.5<1 μM) | ≥ 350% | B (EC1.5 1-25 μM) | < 350% | O=C(Nc1nc(CN2CCOCC2)cs1)c1cnc2ccc(-c3ccccc3C(F)(F)F)nn12 [Compound 20]
8 | B (EC1.5 1-25 μM) | ≥ 350% | B (EC1.5 1-25 μM) | < 350% | O=C(Nc1ccnc(CN2CCOCC2)n1)c1cnc2ccc(-c3ccccc3C(F)(F)F)nn12 [Compound 23]
9 | A (EC1.5<1 μM) | ≥ 350% | A (EC1.5<1 μM) | ≥ 350% | O=C(Nc1ccnc(N2CCCC2)c1)c1cnc2ccc(-c3ccccc3C(F)(F)F)nn12 [Compound 25]
10 | A (EC1.5<1 μM) | ≥ 350% | C (EC1.5>25 μM) | < 350% | O=C(Nc1cccc(CN2CCOCC2)n1)c1cnc2ccc(-c3cccc(Cl)c3)nn12 [Compound 26]
11 | B (EC1.5 1-25 μM) | < 350% | B (EC1.5 1-25 μM) | < 350% | O=C(Nc1nc(CN2CCOCC2)cs1)c1cnc2ccc(-c3cccc(F)c3)nn12 [Compound 29]
12 | B (EC1.5 1-25 μM) | < 350% | B (EC1.5 1-25 μM) | < 350% | O=C(Nc1ccccn1)c1cnc2ccc(-c3ccccc3C(F)F)nn12 [Compound 32]
13 | A (EC1.5<1 μM) | ≥ 350% | B (EC1.5 1-25 μM) | < 350% | O=C(Nc1cccc(CN2CCOCC2)n1)c1cnc2ccc(-c3ccccc3C(F)F)nn12 [Compound 34]
14 | B (EC1.5 1-25 μM) | < 350% | C (EC1.5>25 μM) | < 350% | O=C(Nc1nc(CN2CCOCC2)cs1)c1cnc2ccc(-c3ccccc3C(F)F)nn12 [Compound 35]
15 | B (EC1.5 1-25 μM) | < 350% | C (EC1.5>25 μM) | < 350% | O=C(Nc1ccnc(CN2CCOCC2)n1)c1cnc2ccc(-c3ccccc3C(F)F)nn12 [Compound 38]
16 | B (EC1.5 1-25 μM) | < 350% | C (EC1.5>25 μM) | < 350% | O=C(Nc1cccc(CN2CCOCC2)n1)c1cnc2ccc(-c3ccc(F)cc3F)nn12 [Compound 41]
17 | B (EC1.5 1-25 μM) | < 350% | C (EC1.5>25 μM) | < 350% | O=C(Nc1cccc(CN2CCOCC2)n1)c1cnc2ccc(-c3ccc(F)c(F)c3)nn12 [Compound 43]
18 |  |  |  | ≥ 350% | Cn1cc2ccc(NC(=O)c3cnc4ccc(N5CCCC5C(F)(F)F)nn34)cc2n1 (stereo not shown) [Compound 1092]
19 |  |  |  | ≥ 350% | CN1CCc2ncc(NC(=O)c3cnc4ccc(N5CCCC5C(F)(F)F)nn34)cc2C1 (stereo not shown) [Compound 1094]
20 |  |  |  | ≥ 350% | O=C(Nc1cnc2c(c1)COCC2)c1cnc2ccc(N3CCCC3C(F)(F)F)nn12 (stereo not shown) [Compound 1095]
21 |  |  |  | ≥ 350% | O=C(Nc1nc2c(s1)CCCC2)c1cnc2ccc(N3CCCC3C(F)(F)F)nn12 (stereo not shown) [Compound 1096]
22 |  |  |  | ≥ 350% | O=C(Nc1cccc2c1COB2O)c1cnc2ccc(N3CCCC3C(F)(F)F)nn12 (stereo not shown) [Compound 1097]
23 |  |  |  | ≥ 350% | O=C(Nc1cc(-c2cnco2)ccn1)c1cnc2ccc(N3CCCC3C(F)(F)F)nn12 (stereo not shown) [Compound 1098]
24 |  |  |  | ≥ 350% | O=C(Nc1cccc(-c2cnco2)n1)c1cnc2ccc(N3CCCC3C(F)(F)F)nn12 (stereo not shown) [Compound 1099]

Continued, molecule first:

Row | SMILES | TAMRA EC1.5 (μM) (SIRT1 [1]) | Emax (SIRT1 [1]) | Trp EC1.5 (μM) (SIRT1 [2]) | Emax (SIRT1 [2])
25 | Cc1nn2ccc(N3CCC[C@@H]3C(F)(F)F)nc2c1C(=O)Nc1ccncn1 [Compound 1068] |  |  |  | ≥ 350%
26 | Cc1nn2ccc(N3CCC[C@@H]3C(F)(F)F)nc2c1C(=O)Nc1cncc(F)c1 [Compound 1069] |  |  |  | ≥ 350%
27 | Cc1nn2ccc(N3CCC[C@@H]3C(F)(F)F)nc2c1C(=O)Nc1ccccn1 [Compound 1070] |  |  |  | ≥ 350%
28 | Cc1nn2ccc(N3CCC[C@@H]3C(F)(F)F)nc2c1C(=O)Nc1cccnc1 [Compound 1071] |  |  |  | ≥ 350%
29 | Cc1cncc(NC(=O)c2c(C)nn3ccc(N4CCC[C@@H]4C(F)(F)F)nc23)c1 [Compound 1072] |  |  |  | ≥ 350%
30 | Cc1cncc(NC(=O)c2cnn3ccc(N4CCC(C(F)(F)F)CC4)nc23)c1 [Compound 1073] |  |  |  | ≥ 350%
31 | O=C(Nc1cc(-c2cnco2)ccn1)c1cnn2ccc(N3CCC(C(F)(F)F)CC3)nc12 [Compound 1074] |  |  |  | ≥ 350%
32 | Cc1nn2ccc(N3CCC[C@@H]3C(F)(F)F)nc2c1C(=O)Nc1cccnn1 [Compound 1075] |  |  |  | ≥ 350%
33 | O=C(Nc1cccnc1)c1cnn2ccc(N3CCC[C@@H]3C(F)(F)F)nc12 [Compound 1076] |  |  |  | ≥ 350%
34 | Cc1cncc(NC(=O)c2cnn3ccc(N4CCC[C@@H]4C(F)(F)F)nc23)c1 [Compound 1077] |  |  |  | ≥ 350%
35 | O=C(Nc1cnccn1)c1cnn2ccc(N3CCC[C@@H]3C(F)(F)F)nc12 [Compound 1078] |  |  |  | ≥ 350%
36 | O=C(Nc1cccnn1)c1cnn2ccc(N3CCC[C@@H]3C(F)(F)F)nc12 [Compound 1079] |  |  |  | ≥ 350%
37 | COc1nccc(NC(=O)c2cnn3ccc(N4CCC[C@@H]4C(F)(F)F)nc23)n1 [Compound 1080] |  |  |  | ≥ 350%
38 | O=C(Nc1cccc(-c2cnco2)n1)c1cnn2ccc(N3CCC[C@@H]3C(F)(F)F)nc12 [Compound 1081] |  |  |  | ≥ 350%
39 | Cc1nc(NC(=O)c2c(C)nn3ccc(N4CCC[C@@H]4C(F)(F)F)nc23)sc1C [Compound 1082] |  |  |  | ≥ 350%
40 | O=C(Nc1cccc(-c2cnco2)n1)c1cnn2ccc(N3CCC(C(F)(F)F)CC3)nc12 [Compound 1083] |  |  |  | ≥ 350%
41 | Cc1nn2ccc(N3CCC[C@@H]3C(F)(F)F)nc2c1C(=O)Nc1cnccn1 [Compound 1084] |  |  |  | ≥ 350%
42 | COc1nccc(NC(=O)c2c(C)nn3ccc(N4CCC[C@@H]4C(F)(F)F)nc23)n1 [Compound 1085] |  |  |  | ≥ 350%
43 | Cc1nn2ccc(N3CCC[C@@H]3C(F)(F)F)nc2c1C(=O)Nc1cccc(-c2cnco2)n1 [Compound 1086] |  |  |  | ≥ 350%
44 | Cc1nn2ccc(N3CCC[C@@H]3C(F)(F)F)nc2c1C(=O)Nc1cc(-c2cnco2)ccn1 [Compound 1087] |  |  |  | ≥ 350%
45 | Cc1nc(NC(=O)c2cnn3ccc(N4CCC[C@@H]4C(F)(F)F)nc23)sc1C [Compound 1088] |  |  |  | ≥ 350%
46 | O=C(Nc1cncc(F)c1)c1cnn2ccc(N3CCC[C@@H]3C(F)(F)F)nc12 [Compound 1089] |  |  |  | < 350%
47 | O=C(Nc1ccccn1)c1cnn2ccc(N3CCC[C@@H]3C(F)(F)F)nc12 [Compound 1090] |  |  |  | < 350%
48 | O=C(Nc1cc(-c2cnco2)ccn1)c1cnn2ccc(N3CCC[C@@H]3C(F)(F)F)nc12 [Compound 1091] |  |  |  | ≥ 350%
49 | O=C(Nc1ccncn1)c1cnn2ccc(N3CCC[C@@H]3C(F)(F)F)nc12 [Compound 1093] |  |  |  | < 350%
